In PubChem BioAssay AID256 (DTP/NCI, 2004):
“And” between values parts separate entries of the source, which are not always exact repeats. Identical values can stand only once. Toxic doses and inconclusive results are not listed.

Tested on: CD2F1 mice, L1210 leukemia ip, survival T/C
Experiment: NCI In Vivo Anticancer Drug Screen. Data for tumor model L1210 Leukemia (intraperitoneal) in CD2F1 (CDF1) mice
Conditions: endpoint: mean survival time, higher = longer survival
Outline: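 Compound-dosed mice with transplantable tumor versus matched vehicle controls; endpoint ratio T/C reported.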

[1] = dose: 100.0 mg/kg/injection, schedule: Q04DX003 (ip), vehicle: saline with Tween-80
[2] = dose: 200.0 mg/kg/injection, schedule: Q04DX003 (ip), vehicle: saline with Tween-80
[3] = dose: 400.0 mg/kg/injection, schedule: Q04DX003 (ip), vehicle: saline with Tween-80
[4] = dose: 50.0 mg/kg/injection, schedule: Q04DX003 (ip), vehicle: saline with Tween-80
[5] = dose: 100.0 mg/kg/injection, schedule: Q01DX001 (ip), vehicle: saline with Tween-80
[6] = dose: 400.0 mg/kg/injection, schedule: Q01DX001 (ip), vehicle: saline with Tween-80
[7] = dose: 50.0 mg/kg/injection, schedule: Q04DX003 (ip), vehicle: saline
[8] = dose: 100.0 mg/kg/injection, schedule: Q04DX003 (ip), vehicle: saline
[9] = dose: 200.0 mg/kg/injection, schedule: Q04DX003 (ip), vehicle: saline
[10] = dose: 200.0 mg/kg/injection, schedule: Q01DX001 (ip), vehicle: saline with Tween-80
[11] = dose: 50.0 mg/kg/injection, schedule: Q01DX009 (ip), vehicle: saline with Tween-80
[12] = dose: 100.0 mg/kg/injection, schedule: Q01DX009 (ip), vehicle: saline with Tween-80
[13] = dose: 200.0 mg/kg/injection, schedule: Q01DX009 (ip), vehicle: saline with Tween-80

With `CC(CCOP(N)(=O)N(CCCl)CCCl)OCc1ccccc1` (centres undefined) the T/C (dose: 25.0 mg/kg/injection, schedule: Q01DX001 (ip), vehicle: other) was 98 % of control, the T/C (dose: 50.0 mg/kg/injection, schedule: Q01DX001 (ip), vehicle: other) was 101 % of control and the T/C (dose: 100.0 mg/kg/injection, schedule: Q01DX001 (ip), vehicle: other) was 106 % of control. The T/C (dose: 200.0 mg/kg/injection, schedule: Q01DX001 (ip), vehicle: other) was 115 % of control and the T/C (dose: 500.0 mg/kg/injection, schedule: Q01DX001 (ip), vehicle: other) was 118 % of control.
`CCCCCCC(O)/C=C/c1ccc(Cl)cc1` (centres undefined) was tested, and the T/C [1] was 110 % of control, the T/C [2] was 102 % of control and the T/C [3] was 111 % of control.
With `CC(c1ccccc1)S(=O)[O-].[C-]#[O+].[C-]#[O+].[Fe+6].[c-]1[c-][c-][cH-][c-]1` (centres undefined) the T/C (dose: 25.0 mg/kg/injection, schedule: Q04DX003 (ip), vehicle: saline with Tween-80) was 94 % of control, the T/C [4] was 100 % of control and the T/C [1] was 97 % of control.
For `OCCOC1CCC(O)C2CCCCC12` (centres undefined), the T/C (dose: 100.0 mg/kg/injection, schedule: Q01DX001 (ip), vehicle: saline sonified) was 103 % of control, the T/C (dose: 200.0 mg/kg/injection, schedule: Q01DX001 (ip), vehicle: saline sonified) was 98 % of control and the T/C (dose: 400.0 mg/kg/injection, schedule: Q01DX001 (ip), vehicle: saline sonified) was 109 % of control.
With `C=C1C(=O)OC2C1C(OC(=O)/C(=C/C)COC(C)=O)CC1(CO1)C1C(OC(=O)/C(=C/C)CO)C=C(C)C21` (centres undefined) the T/C [5] was 88 % of control and the T/C [6] was 93 % of control.
With `[CH3][Sn]1([CH3])[O]C2C(CO)OC(n3cnc4c(=O)[nH]c(N)nc43)C2[O]1` (centres undefined) the T/C (dose: 12.5 mg/kg/injection, schedule: Q01DX005 (ip), vehicle: other) was 98 % of control, the T/C (dose: 25.0 mg/kg/injection, schedule: Q01DX005 (ip), vehicle: other) was 101 % of control and the T/C (dose: 50.0 mg/kg/injection, schedule: Q01DX005 (ip), vehicle: other) was 102 % of control. For the same compound, the T/C (dose: 100.0 mg/kg/injection, schedule: Q01DX005 (ip), vehicle: other) was 93 % of control.
For `O=P(O)(O)c1ccc(I)cc1`, the T/C [7] was 94 % of control, the T/C [8] was 94 % of control and the T/C [9] was 98 % of control.
`CC(O)CC1CCCC(C)N1` (centres undefined) was tested, and the T/C [4] was 90 % of control and 100 % of control, the T/C [5] was 101 % of control and the T/C (dose: 100.0 mg/kg/injection, schedule: Q04DX002 (ip), vehicle: saline with Tween-80) was 100 % of control and 106 % of control. For the same compound, the T/C [1] was 100 % of control and 101 % of control, the T/C [10] was 101 % of control and the T/C (dose: 200.0 mg/kg/injection, schedule: Q04DX002 (ip), vehicle: saline with Tween-80) was 98 % of control and 100 % of control. For the same compound, the T/C [2] was 93 % of control and 100 % of control.
`OCC1OC(n2cnc3c(SCc4ccccc4)ncnc32)C(O)C1O` (centres undefined) was tested, and the T/C (dose: 78.0 mg/kg/injection, schedule: Q01DX001 (ip), vehicle: saline) was 104 % of control, the T/C [8] was 101 % of control and the T/C (dose: 117.0 mg/kg/injection, schedule: Q01DX001 (ip), vehicle: saline) was 109 % of control. The T/C (dose: 132.0 mg/kg/injection, schedule: Q01DX009 (ip), vehicle: saline) was 176 % of control, the T/C (dose: 200.0 mg/kg/injection, schedule: Q01DX009 (ip), vehicle: saline) was 187 % of control and the T/C [9] was 98 % of control. For the same compound, the T/C (dose: 400.0 mg/kg/injection, schedule: Q01DX001 (ip), vehicle: other) was 152 % of control and the T/C (dose: 400.0 mg/kg/injection, schedule: Q04DX003 (ip), vehicle: saline) was 104 % of control.
With `Nc1nc2c(c(=O)[nH]1)N=C(CCc1ccccc1)CO2` the T/C (dose: 25.0 mg/kg/injection, schedule: Q01DX009 (ip), vehicle: other) was 91 % of control, the T/C (dose: 50.0 mg/kg/injection, schedule: Q01DX009 (ip), vehicle: other) was 93 % of control and the T/C (dose: 100.0 mg/kg/injection, schedule: Q01DX009 (ip), vehicle: other) was 87 % of control. For the same compound, the T/C (dose: 200.0 mg/kg/injection, schedule: Q01DX009 (ip), vehicle: other) was 87 % of control.
In the case of `O=C(Nc1nccs1)c1ccc(Cl)cc1`, the T/C [11] is reported as 96 % of control, the T/C [12] is reported as 96 % of control and the T/C [13] is reported as 92 % of control.
In the case of `COc1ccc(Cc2c[n+](C)cc3cc(N=O)c(OC)cc23)cc1O`, the T/C (dose: 100.0 mg/kg/injection, schedule: Q01DX001 (ip), vehicle: saline) is reported as 104 % of control and the T/C (dose: 200.0 mg/kg/injection, schedule: Q01DX001 (ip), vehicle: saline) is reported as 102 % of control.
`[NH-]C(CO)C(=O)O.[NH-]C(CO)C(=O)O.[Pd+2]` (centres undefined) was tested, and the T/C (dose: 3.13 mg/kg/injection, schedule: Q04DX003 (ip), vehicle: distilled water + Tween-80) was 104 % of control, the T/C (dose: 3.13 mg/kg/injection, schedule: Q04DX003 (ip), vehicle: saline) was 114 % of control and the T/C (dose: 3.13 mg/kg/injection, schedule: Q04DX003 (ip), vehicle: water) was 95 % of control. The T/C (dose: 6.25 mg/kg/injection, schedule: Q04DX003 (ip), vehicle: distilled water + Tween-80) was 96 % of control, the T/C (dose: 6.25 mg/kg/injection, schedule: Q04DX003 (ip), vehicle: saline) was 94 % of control and the T/C (dose: 6.25 mg/kg/injection, schedule: Q04DX003 (ip), vehicle: water) was 95 % of control. For the same compound, the T/C (dose: 12.5 mg/kg/injection, schedule: Q04DX003 (ip), vehicle: distilled water + Tween-80) was 98 % of control, the T/C (dose: 12.5 mg/kg/injection, schedule: Q04DX003 (ip), vehicle: saline) was 102 % of control and the T/C (dose: 12.5 mg/kg/injection, schedule: Q04DX003 (ip), vehicle: water) was 97 % of control. The T/C (dose: 25.0 mg/kg/injection, schedule: Q04DX003 (ip), vehicle: distilled water + Tween-80) was 95 % of control, the T/C (dose: 25.0 mg/kg/injection, schedule: Q04DX003 (ip), vehicle: saline) was 103 % of control and the T/C (dose: 25.0 mg/kg/injection, schedule: Q04DX003 (ip), vehicle: water) was 96 % of control. The T/C (dose: 50.0 mg/kg/injection, schedule: Q04DX003 (ip), vehicle: distilled water + Tween-80) was 98 % of control, the T/C [7] was 107 % of control and the T/C (dose: 50.0 mg/kg/injection, schedule: Q04DX003 (ip), vehicle: water) was 105 % of control. For the same compound, the T/C (dose: 100.0 mg/kg/injection, schedule: Q04DX003 (ip), vehicle: distilled water + Tween-80) was 102 % of control, the T/C [8] was 106 % of control and the T/C (dose: 100.0 mg/kg/injection, schedule: Q04DX003 (ip), vehicle: water) was 91 % of control.
`S=C(CCc1ccc2c(c1)CCCC2)N1CCOCC1` was tested, and the T/C [1] was 98 % of control, the T/C [2] was 98 % of control and the T/C [3] was 97 % of control.
`C=C(Br)CNC(=O)NCC(=C)Br` was tested, and the T/C [5] was 91 % of control, the T/C [10] was 96 % of control and the T/C [6] was 101 % of control.
For `O=[N+]([O-])c1ccc(/C=C/C=C/c2ccc(Cl)cc2Cl)cc1`, the T/C [1] was 97 % of control, the T/C [2] was 104 % of control and the T/C [3] was 98 % of control.
For `Cc1ccc(NC(=O)OCCOc2ccccc2Cl)cc1[N+](=O)[O-]`, the T/C (dose: 12.5 mg/kg/injection, schedule: Q01DX009 (ip), vehicle: saline with Tween-80) was 98 % of control, the T/C (dose: 25.0 mg/kg/injection, schedule: Q01DX009 (ip), vehicle: saline with Tween-80) was 103 % of control and the T/C [11] was 88 % of control and 103 % of control.
In the case of `COc1ccc(-c2nc3ccc(C)cc3c(=O)o2)cc1`, the T/C [11] is reported as 89 % of control, the T/C [12] is reported as 93 % of control and the T/C [13] is reported as 89 % of control.
For `S=P(N1CCOCC1)(N1CC1)N1CC1`, the T/C (dose: 10.0 mg/kg/injection, schedule: Q01DX007 (ip), vehicle: saline) was 116 % of control, the T/C (dose: 10.0 mg/kg/injection, schedule: Q03DX003 (ip), vehicle: saline) was 118 % of control and the T/C (dose: 10.0 mg/kg/injection, schedule: Q04DX003 (ip), vehicle: saline) was 114 % of control. For the same compound, the T/C (dose: 12.5 mg/kg/injection, schedule: Q01DX Z (ip), vehicle: carboxymethylcellulose (CMC)) was 118 % of control, the T/C (dose: 20.0 mg/kg/injection, schedule: Q01DX007 (ip), vehicle: saline) was 172 % of control and the T/C (dose: 20.0 mg/kg/injection, schedule: Q01DX009 (ip), vehicle: saline) was 171 % of control. The T/C (dose: 25.0 mg/kg/injection, schedule: Q01DX Z (ip), vehicle: carboxymethylcellulose (CMC)) was 100 % of control, the T/C (dose: 40.0 mg/kg/injection, schedule: Q01DX007 (ip), vehicle: saline) was 86 % of control and the T/C (dose: 40.0 mg/kg/injection, schedule: Q01DX009 (ip), vehicle: saline) was 100 % of control. The T/C (dose: 40.0 mg/kg/injection, schedule: Q03DX003 (ip), vehicle: saline) was 223 % of control and the T/C (dose: 40.0 mg/kg/injection, schedule: Q04DX003 (ip), vehicle: saline) was 218 % of control.
With `CC(=O)Nc1cccc2ccc3c4ccccc4ccc3c12` the T/C [1] was 86 % of control, the T/C [2] was 89 % of control and the T/C [3] was 98 % of control.
